Assay results reported in patent US10682359B2, “Inhibitors of glucose kinases, along with methods of their formation and use” (University of South Carolina, priority 2017, dated 2020).
Where two headings read alike, the source gives them in different places.

Assays:
[1] = test system: T. cruzi infective form (amastigotes and trypomastigotes) (Tulahuen strain) in NIH-3T3 fibroblasts; test: T. cruzi viability assay in NIH-3T3 fibroblasts; details: for viability at 80 µM / EC50: Trypanosoma cruzi, TULAHUEN, NIH3T3; for Trypanocidal activity class: class by % viability at 80 μM; for in vitro T. cruzi EC50 compared with benznidazole: infective form co-cultured in NIH-3T3 fibroblasts
[2] = target: T1, Trypanosoma cruzi glucokinase (TcGlcK) (Trypanosoma cruzi, UniProt Q4E4E1); test: TcGlcK-HsΔG6PDH-diaphorase coupled assay, IC50 determination; type: biochemical
T1 construct: made in house
T1 sequence (Q4E4E1 1-376): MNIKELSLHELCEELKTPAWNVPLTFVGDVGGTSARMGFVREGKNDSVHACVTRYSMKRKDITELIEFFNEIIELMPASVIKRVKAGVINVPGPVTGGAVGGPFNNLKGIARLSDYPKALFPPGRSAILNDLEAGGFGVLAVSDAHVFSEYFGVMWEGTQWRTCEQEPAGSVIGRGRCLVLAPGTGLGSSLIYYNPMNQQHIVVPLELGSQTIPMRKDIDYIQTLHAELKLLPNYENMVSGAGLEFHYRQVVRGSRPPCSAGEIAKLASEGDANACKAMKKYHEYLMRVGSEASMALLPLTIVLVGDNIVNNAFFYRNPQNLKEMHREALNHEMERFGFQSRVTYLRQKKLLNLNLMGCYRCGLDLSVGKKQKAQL
Protocol: The TcGlcK assay was performed through its linking with the HsΔG6PDH-diaphorase enzyme-coupled assay system as schematically illustrated in FIG. 1. All of the compounds were tested in quadruplicate using the JANUS-MDT liquid handler equipped with a 384-tip head that was used to transfer 22 μL of a reagent mix [130 U/mL HsΔG6PDH, 100 mM NADP+, 1 kU/mL diaphorase, 10 mM resazurin, and 19 μM TcGlcK in a reaction buffer (see below)], 0.5 μL of 1 mM compounds in 100% DMSO (from the daughter plate, see above), and 2.5 μL of a substrate mix [4 mM D-glucose and 6 mM ATP in a reaction buffer] to a 384-well plate (total volume per well was 25 μL). The reaction buffer was 0.1 M triethanolamine (pH 8.5), 8.0 mM MgCl2, and 0.01% (v/v) Triton X-100. The final assay concentrations (FACs) were 0.5 U/mL HsΔG6PDH, 100 μM NADP+, 1 U/mL diaphorase, 20 μM resazurin, 2.5 nM TcGlcK, 20 μM compounds (from the daughter plate, see above), 0.4 mM D-glucose, 0.6 mM ATP, 0.1 M triethanolamine (pH 8.5), 8 mM MgCl2, and 0.01% (v/v) Triton X-100. […] The assay was carried out using 384-well, black, v-bottom microplates (Greiner Bio-One) with a final volume of 25 μL per well. Pipetting steps were performed with a liquid handler having a 384-tip head, JANUS-MDT from Perkin Elmer (Waltham, Mass.). Compounds that gave rise to TcGlcK enzyme activity in the presence of 20 μM compound (EA20) that results in less than 65%) were categorized as unconfirmed hits to proceed as candidates. The methodology is schematically illustrated in FIG. 2.
Determination of the IC50 values was performed by the TcGlcK—HsΔG6PDH—diaphorase coupled assay, in which reaction velocities were obtained at various concentrations of inhibitors. In 96-well plates, solutions of the inhibitors were prepared by serial dilution. Briefly, column 1 served as a control having an inhibitor concentration of zero; however, columns 2 through 12 on a given row had 11 different inhibitor concentrations from a serial dilution. Using the JANUS-MDT liquid handler with a 96-tip head, assay reactions were carried out in quadruplicate in a 384-well plate and the following components were transferred per well: 44 μL of a reagent mix [130 U/mL HsΔG6PDH, 100 mM NADP^+, 1 kU/mL diaphorase, 10 mM resazurin, and 19 μM TcGlcK in a reaction buffer (0.1 M triethanolamine (pH 8.5), 8.0 mM MgCl2, and 0.01% (v/v) Triton X-100)], 1 uL of 1 mM compound solutions in 100% DMSO, and 5 μL of a substrate mix [4 mM D-glucose and 6 mM ATP in the same reaction buffer]. The Envision microplate reader (PerkinElmer) was used to monitor the formation of resorufin in the fluorescence mode (λex=530 nm; λem=615 nm). Reaction velocities were measured and normalized by the controls. Values of IC50 were calculated using the GraphPad Prism 6.0 software from nonlinear regression of the data.

[3] = TcGlcK - inhibitor IC50, enzymatic coupled assay, read-out: IC50

| Structure (SMILES) | viability at 80 µM [1] | further results |
| --- | --- | --- |
| CCOc1cc(S(=O)(=O)Nc2ccc(Cl)cc2)ccc1F [Compound 1h] | 0% | – |
| CCOc1ccc(S(=O)(=O)Nc2c(F)cccc2F)cc1Cl [Compound 1i] | 4.9 ± 4.7% | – |
| COc1ccc(NS(=O)(=O)c2ccc(Cl)c(C)c2Cl)cc1 [Compound 1d] | 0% | – |
| COc1ccc(S(=O)(=O)Nc2ccc(Br)cc2F)cc1Cl [Compound 1g] | 0% | – |
| CCOc1ccc([C@@H]2Oc3c(Cl)cc(Cl)cc3C=C2[N+](=O)[O-])cc1OCC [Compound 4a] | 0% | EC50 [1]: 2.98 ± 0.227 µM; Trypanocidal activity class [1]: active; in vitro T. cruzi EC50 compared with benznidazole [1]: very similar in vitro T. cruzi EC50 values to that of benznidazole; IC50 [2, 3]: 4.8 µM |
| O=C1NC(=O)C(=Cc2ccc3c(c2)OCO3)C(=O)N1 [Compound 2h] | 81.2 ± 13.7% | IC50 [2]: 8.7 µM |
| CCOc1ccc([C@@H]2Oc3ccccc3C=C2[N+](=O)[O-])cc1OCC [Compound 4d] | 0% | IC50 [2, 3]: 69.1 µM |
| CN1C(=O)C(=Cc2ccc(N(C)C)cc2)C(=O)N(C)C1=O [Compound 2c] | 79 ± 4% | IC50 [2]: 5.5 µM |
| O=C1NC(=O)C(=Cc2ccc(Br)s2)C(=O)N1 [Compound 2f] | 74.2 ± 5.3% | IC50 [2]: 2.4 µM |
| Cc1cc2c(c(O)c1-c1c(C)cc3c(c1O)/C(=C/Nc1cccc4c(N)cccc14)C(=O)C(O)=C3C(C)C)/C(=C/Nc1cccc3c(N)cccc13)C(=O)C(O)=C2C(C)C [Compound 6b] | 1.7 ± 2.7% | IC50 [2, 3]: 16.5 µM |
| Cc1nn(-c2ccccc2)c2c1[C@@H](c1ccc(F)cc1)C(C#N)=C(N)O2 [Compound 5b] | 87.1 ± 3.3% | IC50 [2, 3]: 17.1 µM |
| CCOc1ccc([C@@H]2Oc3ccc(Br)cc3C=C2[N+](=O)[O-])cc1OC [Compound 4b] | 0% | EC50 [1]: 2.17 ± 0.045 µM; Trypanocidal activity class [1]: active; in vitro T. cruzi EC50 compared with benznidazole [1]: very similar in vitro T. cruzi EC50 values to that of benznidazole; IC50 [2, 3]: 6.5 µM |
| COc1ccc(F)cc1S(=O)(=O)Nc1ccc(Cl)cc1 [Compound 1n] | 2.4 ± 7.4% | – |
| COc1ccc(Br)cc1[C@H]1C(C#N)=C(N)Oc2c1c(C)nn2-c1ccccc1 [Compound 5a] | 0% | IC50 [2, 3]: 18.8 µM |
| c1ccc([C@@H]2CCCN2)nc1 [Compound 7] | 84.3 ± 0.5% | – |
| Cc1nn(-c2cccc(Cl)c2)c2c1[C@@H](c1cc([N+](=O)[O-])ccc1Cl)C(C#N)=C(N)O2 [Compound 5d] | 0% | – |
| O=C1NC(=O)C(=Cc2ccc(O)c(O)c2)C(=O)N1 [Compound 2g] | 62.8 ± 11.6% | IC50 [2]: 4.2 µM |
| COc1ccc(S(=O)(=O)Nc2cc(Cl)ccc2Cl)c(C)c1C [Compound 1k] | 0% | – |
| Cc1ccc(-n2nc(C)c3c2OC(N)=C(C#N)[C@H]3c2ccoc2)cc1 [Compound 5c] | 80.6 ± 3.9% | – |
| O=[N+]([O-])C1=Cc2c(ccc3ccccc23)O[C@H]1c1ccc2c(c1)OCO2 [Compound 4e] | 0% | – |

| Structure (SMILES) | viability at 80 µM [1] | further results |
| --- | --- | --- |
| COc1ccc(S(=O)(=O)Nc2cccc(SC)c2)cc1F [Compound 1b] | 0% | – |
| COc1ccc([C@@H]2Oc3ccccc3C=C2[N+](=O)[O-])cc1OC [Compound 4c] | 0% | IC50 [2, 3]: 53.2 µM |
| CCOc1ccc(S(=O)(=O)Nc2cccc(Cl)c2C)cc1C [Compound 1j] | 0% | – |
| O=C1NC(=O)C(=Cc2ccc(N3CCOCC3)cc2)C(=O)N1 [Compound 2e] | 88 ± 9.4% | IC50 [2]: 1.7 µM |
| COc1ccc(S(=O)(=O)Nc2cccc(Br)c2)c(Cl)c1Cl [Compound 1a] | 0% | EC50 [1]: 13.3 ± 0.3 µM; Trypanocidal activity class [1]: active; IC50 [2, 3]: 7.2 µM |
| COc1ccc(Br)cc1/C=C1/C(=O)NC(=O)N(CCC2=CCCCC2)C1=O [Compound 2d] | 88.7 ± 15.1% | IC50 [2]: 13.7 µM |
| Nc1c(C(=O)c2cccc([N+](=O)O)c2)sc2nc(-c3cccnc3)ccc12 [Compound 9] | 52.7 ± 7.9% | – |
| Cc1cc2c(c(O)c1-c1c(C)cc3c(c1O)/C(=C/Nc1ccc(Cc4ccc(N)cc4)cc1)C(=O)C(O)=C3C(C)C)/C(=C/Nc1ccc(Cc3ccc(N)cc3)cc1)C(=O)C(O)=C2C(C)C [Compound 6d] | 63.3 ± 0.4% | IC50 [2, 3]: 61.6 µM |
| Cc1cc2c(c(O)c1-c1c(C)cc3c(c1O)/C(=C/Nc1c(O)cc(S(=O)(=O)O)c4ccccc14)C(=O)C(O)=C3C(C)C)/C(=C/Nc1c(O)ccc3c(S(=O)(=O)O)cccc13)C(=O)C(O)=C2C(C)C [Compound 6c] | 20.4 ± 10.3% | IC50 [2, 3]: 30.2 µM |
| Cc1cc(N2CCOCC2)ccc1/C=C1/C(=O)NC(=O)N(c2ccc3c(c2)OCO3)C1=O [Compound 2b] | 57 ± 2.8% | IC50 [2]: 1.1 µM |
| Cc1cc2c(c(O)c1-c1c(C)cc3c(c1O)C(=CNc1ccc(S(=O)(=O)NC(=N)N)cc1)C(=O)C(O)=C3C(C)C)C(=CNc1ccc(S(=O)(=O)NC(=N)N)cc1)C(=O)C(O)=C2C(C)C [Compound 6a] | 0% | EC50 [1]: 8.62 ± 0.493 µM; Trypanocidal activity class [1]: active; IC50 [2, 3]: 13.2 µM |
| COc1cc(S(=O)(=O)Nc2cccc(Cl)c2C)c(C)cc1C [Compound 1c] | 0% | – |
| O=C(O)C1Nc2c(I)cccc2C2C=CCC12 (stereo not drawn) [Compound 8] | 44.3 ± 5.1% | – |
| O=C1C(=Cc2ccco2)C(=O)N(c2ccccc2)C(=O)N1c1ccccc1 [Compound 2a] | 66.5 ± 22.3% | IC50 [2]: 0.6 µM |
| COc1ccc(S(=O)(=O)Nc2ccccc2)cc1F [Compound 1l] | 34.6 ± 4.3% | – |
| O=S(=O)(Nc1ccc(O)cc1)c1cc(Cl)ccc1Cl [Compound 1m] | 0.6 ± 2.9% | – |
| COc1ccc(C(=O)Nc2sc3c(c2C(N)=O)CCCCC3)cc1OC [Compound 10] | 50.5 ± 3.4% | – |
| COc1ccc(S(=O)(=O)Nc2ccc3ccccc3c2)cc1Cl [Compound 1f] | 0% | – |
| COc1ccc(S(=O)(=O)Nc2ccc(F)c(F)c2)cc1I [Compound 1e] | 0% | – |
| N#Cc1ccc(-c2cccnc2)nc1SCC(=O)O [Compound 11] | 86.5 ± 0.9% | – |
